Measured values: US20180171411A1, “GFRalpha1 AS A BIOMARKER FOR CISPLATIN-INDUCED CHEMORESISTANCE AND METASTASIS” (THE BOARD OF REGENTS OF THE UNIVERSITY OF TEXAS SYSTEM, priority 2015, published 2018)

How the values were obtained:
[1] = tested on: GFRα1-overexpressing MG-63 clone #4; assay: Colony-forming assay in the presence of cisplatin; format: cell-based, human; conditions: cisplatin 20 μM 10 days; 3-MA (10 μM), Baf (100 nM), CQ (30 μg/ml)
Excerpt: FIG. 3. […] Scale bar, 20 μm. […] Scale bar, 20 μm. […] Scale bar, 20 μm.

[2] = tested on: GFRα1 mRNA in MG-63 and U-2 OS cells; assay: Quantitative real-time PCR of GFRα1 mRNA after cisplatin; format: cell-based, human; conditions: both cell lines; dose and time dependent
Method: FIG. 1. Cisplatin induces GFRα1 expression in osteosarcoma cells. (a-c) Immunoblot analysis of osteosarcoma cell lysates with antibodies specific for GFRα1 and β-actin. (a) MG-63 and U-2 OS cells were treated with doxorubicin (5 μM), cisplatin (20 μM), or methotrexate (1 mM) for 24 hr. Immunoblot analysis of GFRα1 (left) and quantification of GFRα1 expression (right) after treatment of chemotherapeutic agents. (b) MG-63 and U-2 OS cells were treated with different concentrations of cisplatin for 24 hr. (c) MG-63 and U-2 OS cells were treated with cisplatin (20 μM) and collected at the indicated time. (d and e) Quantitative real-time PCR of GFRα1 mRNA expression after cisplatin treatment. Representative images (top) and quantitative analysis (bottom) of GFRα1 mRNA expression. The values are presented as a mean±s.d.m (n=3). ** denotes p<0.05 by t-test. (d) MG-63 and U-2 OS cells were treated with different concentrations of cisplatin for 24 hr. (e) MG-63 and U-2 OS cells were treated with cisplatin (20 μM) and collected at the indicated time.
Quantitative real-time (RT)-PCR (qPCR). Total RNA was collected and isolated from cell lines using the RNeasy system according to the manufacturer's protocol (Qiagen, Hilden, Germany). cDNA was generated from a 30 μl reaction containing total RNA (3 μg), reverse transcriptase and oligo dT primers (Promega, Madison, Wis.). […]

[3] = tested on: cytoplasmic HMGB1 in MG-63/GFRα1 tumors; assay: Immunofluorescence of HMGB1 in xenograft tumors; format: in vivo, mouse; conditions: tumors of MG-63/GFRα1 cell grafted mice
Method: FIG. 5. GFRα1-mediated autophagy promotes chemoresistance and tumor growth in vivo. (a) BALB/c nude mice (n =40) were injected with MG-63 cells that were transfected with either control or GFRα1 expressing vector. Tumor volume was measured every 3 or 4 days. Data are shown as mean±SEM. ** p<0.05. (b) BALB/c nude mice (n=20) were injected with MG-63 cells that were transfected with either control or GFRα1 shRNA. Tumor volume was measured every 3 or 4 days. Data are shown as mean±SEM. ** p<0.05. (c) Tumors that were generated from mice injected with MG-63 cells containing GFRα1 expressing vector were directly injected with PBS, CQ, cisplatin, or cisplatin+CQ. Tumor volume was measured every 4 days. […] Right, quantitative analysis of percentage of cytoplasmic HMGB1-positive cells in HMGB1-positive tumors. […] Right, quantitative analysis of percentage of TUNEL-positive cells in HMGB1-positive tumors. […]
Immunohistochemistry. […] For immunofluorescence, immunohistochemistry of patient tissues and mouse tumors are incubated with the Alexa Fluor 488- and 647-conjugated secondary antibodies (Invitrogen), and nuclei were counterstained with DAPI (Sigma-Aldrich) Immunofluorescence was detected by confocal microscopy. […] Thus, marked plus (+) was considered to be positive immunoreactivity, while that minus (−) was considered to be negative immunoreactivity (not detected). […]

| SMILES | number of colonies [1] | level of GFRα1 mRNA [2] | HMGB1 expression localized in the cytoplasm [3] |
| --- | --- | --- | --- |
| Cn1cnc(N)c2ncnc1-2 [3-MA, 3-methyladenine] | effectively reduced | – | – |
| N.N.[Cl][Pt][Cl] [cisplatin, Cis-Diamineplatinum(II) dichloride] | – | increased | significant increase |
